pEC50: −log10 of the molar value. Read-outs that look alike come from different tables or passages of the source.
Key:
RSV minigenome = experiment: RSV minigenome-dependent β-galactosidase expression assay (RSV β-Gal); assay type: cell-based, respiratory syncytial virus; conditions: for pEC50: Secondary Data, RSV, read-out: RSV EC50; for inhibition at 25 µM: primary screening, 25 μM final concentration, 24 hours, percent inhibition of viral replication, read-out: RSV Inh; for RSV TI: therapeutic index CC50/EC50, RSV
SINV (SR19-F-luc cells) = experiment: SINV antiviral activity, SR19-F-luc cells, Firefly luciferase; assay type: cell-based; conditions: Sindbis virus; for inhibition at 25 µM: primary screening, 25 μM final concentration, 24 hours, percent inhibition of viral replication, read-out: SINV Inh; for pEC50: secondary screening, SR19-F-luc cells
WNV (WN-hRuPac cells) = experiment: WNV antiviral activity, WN-hRuPac cells, Renilla luciferase; assay type: cell-based, West Nile virus; conditions: for pEC50 / inhibition at 25 µM: West Nile virus; for pEC50: Secondary Data, WNV, read-out: WNV EC50; for inhibition at 25 µM: primary screening, 25 μM final concentration, 24 hours, percent inhibition of viral replication, read-out: WNV Inh; for WNV TI: therapeutic index CC50/EC50, WNV
YFV (YF-hRuPac cells) = experiment: microbe, parasite or virus in culture; assay type: cell-based, yellow fever virus; conditions: for inhibition at 25 µM / pEC50: Yellow fever virus; for inhibition at 25 µM: 24 h, read-out: YFV Inh; for pEC50: read-out: YFV EC50
EBOV minigenome = experiment: microbe, parasite or virus in culture; assay type: cell-based, Ebola virus; conditions: for inhibition at 25 µM / pEC50: Zaire ebolavirus; for inhibition at 25 µM: 24 h, read-out: EBOV Inh; for pEC50: read-out: EBOV EC50
[1] = test system: HCV replicon (Clone A cells, Huh7, subgenomic hepatits C virus RNA); experiment: HCV Neo screening assay (HCV replicon, NPTII ELISA); assay type: cell-based, hepatitis C virus; conditions: for pEC50 / inhibition at 25 µM: Hepatitis C virus, Huh-7; for pEC50: Secondary Data, HCV; for inhibition at 25 µM: primary screening, 25 μM final concentration, 24 hours, percent inhibition of viral replication, read-out: HCV Inh; for HCV TI: therapeutic index CC50/EC50, HCV
[2] = human respiratory syncytial virus

| Compound | CC50 (in vitro; DNG CC50) | CC50 (in vitro; EBOV CC50) | CC50 (in vitro; HCV CC50) | CC50 (in vitro; RSV CC50) | CC50 (in vitro; SINV CC50) | CC50 (in vitro; WNV CC50) | CC50 (in vitro; YFV CC50) | pEC50 (RSV minigenome; [2]) | inhibition at 25 µM (RSV minigenome; [2]) | RSV TI (RSV minigenome) | inhibition at 25 µM (SINV (SR19-F-luc cells)) | pEC50 (WNV (WN-hRuPac cells)) | inhibition at 25 µM (WNV (WN-hRuPac cells)) | WNV TI (WNV (WN-hRuPac cells)) | YFV TI (YFV (YF-hRuPac cells)) | inhibition at 25 µM (YFV (YF-hRuPac cells)) | pEC50 (YFV (YF-hRuPac cells)) | inhibition at 25 µM (EBOV minigenome) | inhibition at 25 µM [1] | pEC50 (EBOV minigenome) | further results |
| --- | --- | --- | --- | --- | --- | --- | --- | --- | --- | --- | --- | --- | --- | --- | --- | --- | --- | --- | --- | --- | --- |
| Cc1ccc(Nc2cc(C)nc3ccc(C)cc23)cc1 [Compound 6] | 35.2 µM | 35.2 µM | 11.7 µM | 35.2 µM | 35.2 µM | 35.2 µM | 35.2 µM | 5.01 | 91.2% | 3.57 | 76.8% | 4.41 | 79.1% | 0.91 | 2.73 | 77.7% | 4.89 | 42.7% | 187% | – | pEC50 (SINV (SR19-F-luc cells)): 5.64; pEC50 [1]: 4.85; HCV TI [1]: 0.84 |
| Cc1cccc(Nc2c3c(nc4ccccc24)CCC3)c1 [Compound 11] | 28.8 µM | 28.8 µM | 9.67 µM | 28.8 µM | 28.8 µM | 28.8 µM | 28.8 µM | 5.54 | 99.5% | 9.91 | 81.7% | 5.01 | 75% | 2.94 | 5.74 | 79.1% | 5.30 | 62.7% | 143% | 4.59 | pEC50 (SINV (SR19-F-luc cells)): 5.55; pEC50 [1]: 5.47; HCV TI [1]: 2.87 |
| CCOC(=O)c1cnc2c(Cl)c(Cl)ccc2c1NCc1ccco1 [Compound 19] | 20.9 µM | 20.9 µM | – | 20.9 µM | 20.9 µM | 20.9 µM | 20.9 µM | 5.75 | 82.3% | 11.81 | 11.9% | 5.40 | 80.6% | 5.25 | 7.98 | 93.2% | 5.58 | 0.97% | 50.9% | 4.12 | – |
| Cc1ccc(Nc2c3c(nc4ccc(C)cc24)CCC3)cc1 [Compound 28] | 43.8 µM | 43.8 µM | 6.82 µM | 43.8 µM | 43.8 µM | 43.8 µM | 43.8 µM | 5.34 | 93.7% | 9.56 | 81.3% | 4.76 | 75.2% | 2.52 | 6.45 | 75% | 5.17 | 19.2% | 155% | – | pEC50 (SINV (SR19-F-luc cells)): 5.56; pEC50 [1]: 5.13; HCV TI [1]: 0.91 |
| Cc1cc(Nc2ccc(C)c(Cl)c2)c2cccc(C)c2n1 [Compound 50] | 66.2 µM | 66.2 µM | 7.32 µM | 66.2 µM | 66.2 µM | 66.2 µM | 66.2 µM | 5.17 | 85.5% | 9.79 | 65.8% | 5.20 | 82% | 10.51 | 19.41 | 92.2% | 5.47 | 42.6% | 138% | – | pEC50 [1]: 5.06; HCV TI [1]: 0.85 |
| CCOc1ccc2nc(C)cc(Nc3ccc(Cl)cc3)c2c1 [Compound 59] | 21.2 µM | 21.2 µM | 7.45 µM | 21.2 µM | 21.2 µM | 21.2 µM | 21.2 µM | 5.49 | 99.7% | 6.5 | 93.5% | 4.96 | 83.7% | 1.94 | 4.82 | 84.6% | 5.36 | 92.2% | 140% | 5.49 | pEC50 [1]: 5.22; HCV TI [1]: 1.23 |
| CCOC(=O)c1cnc2c(OC)cccc2c1NCc1ccccc1 [Compound 62] | 43.5 µM | 43.5 µM | – | 43.5 µM | 43.5 µM | 43.5 µM | 43.5 µM | 5.43 | 99% | 11.66 | 81.3% | – | 67.7% | – | – | 76.6% | – | 97.4% | -5.83% | 4.12 | – |
| CCOC(=O)c1cnc2c(OC)cccc2c1NCc1ccco1 [Compound 67] | 29.9 µM | 29.9 µM | – | 29.9 µM | 29.9 µM | 29.9 µM | 29.9 µM | 5.92 | 98.3% | 24.88 | 68% | – | 33.5% | – | – | 70.7% | – | 86.6% | 5.39% | 4.70 | – |
| CCOC(=O)c1cnc2c(OC)cccc2c1NCc1cccnc1 [Compound 68] | 51 µM | 51 µM | – | 51 µM | 51 µM | 51 µM | 51 µM | 5.52 | 98.9% | 17 | 72.8% | – | 49.7% | – | – | 71.8% | – | 74.5% | 44.7% | 4.16 | – |
| CCOC(=O)c1cnc2c(OC)cccc2c1NCCCO [Compound 70] | 45.8 µM | 45.8 µM | ≥ 75 µM | 45.8 µM | 45.8 µM | 45.8 µM | 45.8 µM | 5.52 | 95.8% | 15.15 | 64.5% | – | 14.6% | – | – | 62.6% | – | 74.7% | 55.6% | 4.16 | – |
| COc1ccccc1Nc1cc(C)nc2c(C)c(C)cc(N)c12 [Compound 77] | 52.6 µM | 52.6 µM | – | 52.6 µM | 52.6 µM | 52.6 µM | 52.6 µM | – | – | 11.07 | – | – | – | – | – | – | – | – | – | 4.12 | pEC50 (RSV minigenome): 5.32; EBOV Inh (EBOV minigenome): 94.37% |

— US20090221624A1, “4-AMINOQUINOLINE COMPOUNDS FOR TREATING VIRUS-RELATED CONDITIONS” (priority 2005, published 2009)
